Assay results published in article PMC7041945, “Misfolded proteins bind and activate death receptor 5 to trigger apoptosis during unresolved endoplasmic reticulum stress” (eLife, 2020).

Tests used:
GAPDH = assay: qPCR of GAPDH (reference transcript); type: cell-based; conditions: 24 hr, Rep 2
[1] = test system: CHOP, BiP, and DR5 mRNA in HCT116 cells; assay: qPCR of UPR target transcripts (CHOP, BiP, DR5); type: cell-based, Homo sapiens
Protocol: Cells were grown in 6-well plates and harvested with 0.5 ml of TRIzol reagent (Life Technologies) per manufacturer’s protocol to extract RNA. For cDNA synthesis, 500 ng of total RNA was reverse transcribed with 2 μl of the SuperScript VILO master mix (Life Technologies # 11755050) in a total reaction volume of 10 μl following the manufacturer’s protocol for reaction temperature and duration. The reverse transcription product was diluted to 200 μl with 10 mM Tris-HCl pH 8.2 and used at 1:100 dilution for subsequent RT-PCR reactions.
PCR samples were prepared as described by manufacturer’s protocols from iQ SYBR Green Supermix (BioRad #17088800).
For each experiment, qRT-PCR reactions were set up in triplicate and run using a CFX96 Real Time System (Bio-Rad). Quantitation cycles were determined with CFX Manager 3.0 software (Bio-Rad) and then normalized to GAPDH as an internal control.

[2] = 24 hr, Rep 2, relative to empty traffo, mean of 3 replicates
[3] = 24 hr, Rep 2, relative to empty traffo, replicate 1
[4] = 24 hr, Rep 2, relative to empty traffo, replicate 2
[5] = 24 hr, Rep 2, relative to empty traffo, replicate 3
[6] = HCT116, 100 nM for 24 hours, avg., norm to GAPDH
[7] = HCT116, 100 nM for 24 hours, replicate 1
[8] = HCT116, 100 nM for 24 hours, replicate 2
[9] = HCT116, 100 nM for 24 hours, replicate 3
[10] = HCT116, 100 nM for 24 hours, vs GAPDH, replicate 1
[11] = HCT116, 100 nM for 24 hours, vs GAPDH, replicate 2
[12] = HCT116, 100 nM for 24 hours, vs GAPDH, replicate 3
[13] = HCT116, 100 nM Tg for 24 hours, mean of 3 replicates
[14] = HCT116, 100 nM Tg for 24 hours, replicate 1
[15] = HCT116, 100 nM Tg for 24 hours, replicate 2
[16] = HCT116, 100 nM Tg for 24 hours, replicate 3
[17] = qPCR Rep 2, WT MPZ GFP 1000 ng, or empty traffo + Tg, mean of 3
[18] = qPCR Rep 2, WT MPZ GFP 1000 ng, or empty traffo + Tg, replicate 1
[19] = qPCR Rep 2, WT MPZ GFP 1000 ng, or empty traffo + Tg, replicate 2
[20] = qPCR Rep 2, WT MPZ GFP 1000 ng, or empty traffo + Tg, replicate 3
[21] = qPCR Rep 2, WT MPZ GFP 1000 ng, or empty traffo + Tg, vs avg GAPDH, replicate 1
[22] = qPCR Rep 2, WT MPZ GFP 1000 ng, or empty traffo + Tg, vs avg GAPDH, replicate 2
[23] = qPCR Rep 2, WT MPZ GFP 1000 ng, or empty traffo + Tg, vs avg GAPDH, replicate 3

## C/C=C(/C)C(=O)O[C@H]1C(C)=C2[C@H]([C@@H]1OC(=O)CCCCCCC)[C@@](C)(OC(C)=O)C[C@H](OC(=O)CCC)[C@@]1(O)[C@H]2OC(=O)[C@@]1(C)O [thapsigargin, reference compound]
GAPDH; mean of 3 replicates
  Cq GAPDH: 18.752
GAPDH; relative to empty traffo, mean of 3 replicates
  avg. fold induction GAPDH: 1.009
GAPDH; relative to empty traffo, replicate 1
  fold induction GAPDH: 0.7989
GAPDH; relative to empty traffo, replicate 2
  fold induction GAPDH: 1.157
GAPDH; relative to empty traffo, replicate 3
  fold induction GAPDH: 1.071
GAPDH; replicate 1
  2^-(deltaCq) GAPDH: 0.8014
  Cq GAPDH: 19.0714
  Cq(sample) - avg Cq(GAPDH), GAPDH: 0.3194
GAPDH; replicate 2
  2^-(deltaCq) GAPDH: 1.161
  Cq GAPDH: 18.5367
  Cq(sample) - avg Cq(GAPDH), GAPDH: -0.2154
GAPDH; replicate 3
  2^-(deltaCq) GAPDH: 1.075
  Cq GAPDH: 18.648
  Cq(sample) - avg Cq(GAPDH), GAPDH: -0.104
[1]; [2]
  avg. fold induction CHOP: 2.825
  avg. fold induction DR5 total: 2.175
[1]; [3]
  fold induction CHOP: 2.975
  fold induction DR5 total: 2.222
[1]; [4]
  fold induction CHOP: 2.927
  fold induction DR5 total: 2.286
[1]; [5]
  fold induction CHOP: 2.573
  fold induction DR5 total: 2.0182
[1]; 24 hr, Rep 2, replicate 1
  2^-(deltaCq) CHOP: 0.03423
  2^-(deltaCq) DR5 total: 0.06479
  Cq CHOP: 23.6206
  Cq DR5 total: 22.7
  Cq(sample) - avg Cq(GAPDH), CHOP: 4.869
  Cq(sample) - avg Cq(GAPDH), DR5 total: 3.948
[1]; 24 hr, Rep 2, replicate 2
  2^-(deltaCq) CHOP: 0.03367
  2^-(deltaCq) DR5 total: 0.06665
  Cq CHOP: 23.6444
  Cq DR5 total: 22.6592
  Cq(sample) - avg Cq(GAPDH), CHOP: 4.892
  Cq(sample) - avg Cq(GAPDH), DR5 total: 3.9072
[1]; 24 hr, Rep 2, replicate 3
  2^-(deltaCq) CHOP: 0.0296
  2^-(deltaCq) DR5 total: 0.05885
  Cq CHOP: 23.8304
  Cq DR5 total: 22.839
  Cq(sample) - avg Cq(GAPDH), CHOP: 5.078
  Cq(sample) - avg Cq(GAPDH), DR5 total: 4.087
[1]; [6]
  avg. fold induction relative to empty traffo, BiP: 12.0843 fold
  avg. fold induction relative to empty traffo, CHOP: 7.5114 fold
  avg. fold induction relative to empty traffo, DR5 total: 5.041 fold
[1]; [7]
  fold induction relative to empty traffo, BiP: 11.9233 fold
  fold induction relative to empty traffo, CHOP: 7.102 fold
  fold induction relative to empty traffo, DR5 total: 5.4959 fold
[1]; [8]
  fold induction relative to empty traffo, BiP: 12.5755 fold
  fold induction relative to empty traffo, CHOP: 7.658 fold
  fold induction relative to empty traffo, DR5 total: 4.966 fold
[1]; [9]
  fold induction relative to empty traffo, BiP: 11.754 fold
  fold induction relative to empty traffo, CHOP: 7.775 fold
  fold induction relative to empty traffo, DR5 total: 4.661 fold
[1]; [10]
  2^-(deltaCq) BiP: 1.038
  2^-(deltaCq) CHOP: 0.07495
  2^-(deltaCq) DR5 total: 0.08912
[1]; [11]
  2^-(deltaCq) BiP: 1.095
  2^-(deltaCq) CHOP: 0.08082
  2^-(deltaCq) DR5 total: 0.08052
[1]; [12]
  2^-(deltaCq) BiP: 1.023
  2^-(deltaCq) CHOP: 0.08206
  2^-(deltaCq) DR5 total: 0.07558
[1]; [13]
  GAPDH avg. fold induction relative to empty traffo: 1.006
  GFP avg. fold induction relative to empty traffo: 0.1103
[1]; HCT116, 100 nM Tg for 24 hours, melt curves for these primers showed two peaks, mean of 3 replicates
  ERO1alpha (386+387) avg. fold induction relative to empty traffo: 0.8588
[1]; HCT116, 100 nM Tg for 24 hours, melt curves for these primers showed two peaks, replicate 1
  ERO1alpha (386+387) fold induction relative to empty traffo: 0.8482
[1]; HCT116, 100 nM Tg for 24 hours, melt curves for these primers showed two peaks, replicate 2
  ERO1alpha (386+387) fold induction relative to empty traffo: 0.8572
[1]; HCT116, 100 nM Tg for 24 hours, melt curves for these primers showed two peaks, replicate 3
  ERO1alpha (386+387) fold induction relative to empty traffo: 0.8711
[1]; [14]
  GADD34 (388+389) fold induction relative to empty traffo: 11.4671
  GAPDH fold induction relative to empty traffo: 1.083
  GFP fold induction relative to empty traffo: 0.1161
[1]; [15]
  GADD34 (388+389) fold induction relative to empty traffo: 11.4954
  GAPDH fold induction relative to empty traffo: 1.089
  GFP fold induction relative to empty traffo: 0.1176
[1]; [16]
  GADD34 (388+389) fold induction relative to empty traffo: 10.9924
  GAPDH fold induction relative to empty traffo: 0.847
  GFP fold induction relative to empty traffo: 0.09722
[1]; [17]
  avg. fold induction relative to WT MPZ DMSO, BiP: 6.727 fold
  avg. fold induction relative to WT MPZ DMSO, CHOP: 9.899 fold
  avg. fold induction relative to WT MPZ DMSO, DR5 total: 3.489 fold
[1]; [18]
  fold induction relative to WT MPZ DMSO, BiP: 6.3 fold
  fold induction relative to WT MPZ DMSO, CHOP: 10.9106 fold
  fold induction relative to WT MPZ DMSO, DR5 total: 3.205 fold
[1]; [19]
  fold induction relative to WT MPZ DMSO, BiP: 6.984 fold
  fold induction relative to WT MPZ DMSO, CHOP: 9.299 fold
  fold induction relative to WT MPZ DMSO, DR5 total: 3.841 fold
[1]; [20]
  fold induction relative to WT MPZ DMSO, BiP: 6.897 fold
  fold induction relative to WT MPZ DMSO, CHOP: 9.4871 fold
  fold induction relative to WT MPZ DMSO, DR5 total: 3.4208 fold
[1]; [21]
  2^-(deltaCq) BiP: 1.043
  2^-(deltaCq) CHOP: 0.04115
  2^-(deltaCq) DR5 total: 0.04765
[1]; [22]
  2^-(deltaCq) BiP: 1.156
  2^-(deltaCq) CHOP: 0.03507
  2^-(deltaCq) DR5 total: 0.05711
[1]; [23]
  2^-(deltaCq) BiP: 1.142
  2^-(deltaCq) CHOP: 0.03578
  2^-(deltaCq) DR5 total: 0.05086
